Measured values from paper PMC6689897, “Drugging an undruggable pocket on KRAS” (Proceedings of the National Academy of Sciences of the …, 2019).
pEC50, pIC50: −log10 of the molar value.

Experiments:
NCI-H358 cells [1] = test: 2D proliferation assay; type: cell-based, human; settings: standard 2D culture conditions
Description: (§1) 263 (ATCC® CCL-224™; grown in RPMI 10% FCS) and SK-MEL-28 (ATCC® HTB-
(§2) 264 72™, grown in EMEM 10% FCS). Cell cultures were incubated at 37 °C and 5% CO2 in
(§3) 265 a humidified atmosphere, with medium change or subcultivation 2-3 times a week.
(§4) 269 Cells were lysed in 1x lysis buffer (Cell Signaling #9803) and protein concentration
(§5) 270 normalized to 10µg/µL. Proteins were separated by SDS-Page and transferred to
(§6) 271 Nitrocellulose membranes (BioRad) according to standard protocols. Membranes were
(§7) 273 (Milipore #06-182) and Tubulin (Cell Signaling #2144) in 5% BSA in TBST blocking
(§8) 274 buffer. After primary antibody incubation membranes were incubated with anti-rabbit
(§9) 275 IgG secondary antibody (Dako #P0448) and detected with ECL (GE Healthcare Life
(§10) 278 Compound treatment of cells
(§11) 279 Synthesized or purchased (ARS 1620) compounds were dissolved in 100% DMSO and
280 stored at a concentration of 10mM at -20°C. Compounds were either serially diluted in
281 medium or directly added to reach the intended final concentration. DMSO was added
282 to control reactions as reference to keep the final DMSO concentration in all samples
285 2D proliferation assay: […]
(§12) Quantification of living cells […]
(§13) 291 manufacturer’s recommendation. Luminescence was read in a 2030 VICTOR X5 (Perkin […]
(§14) 305 were trypsinized, counted and plated in 60 µL culture medium containing 2% FCS […]

NCI-H358 cells [2] = test: Soft agar proliferation assay in low serum; type: cell-based; settings: Homo sapiens, soft agar and low serum conditions, read-out: EC50 antiproliferative effect
Description: as §1, §2, §3, §4, §5, §6, §7, §8, §9, §10, §11
280 stored at a concentration of 10mM at -20°C. Compounds were either serially diluted in […]
as §12, §13, §14
313 added according to manufacturer’s instructions. Fluorescence intensity was determined
314 using a fluorescence reader (2030 VICTOR X5, Perkin Elmer). […]
319 MAPK pathway signaling (pERK, pAKT quantification) […]

GTP-KRASwt::SOS1 = target: T1, GTP-KRASwt::SOS1 (Homo sapiens, UniProt P01116); test: Alpha Screen PPI assay; type: biochemical; settings: duplicate
T1 construct: biotin (attachment tag not described)
T1 sequence (P01116 1-188 isoform P01116-2): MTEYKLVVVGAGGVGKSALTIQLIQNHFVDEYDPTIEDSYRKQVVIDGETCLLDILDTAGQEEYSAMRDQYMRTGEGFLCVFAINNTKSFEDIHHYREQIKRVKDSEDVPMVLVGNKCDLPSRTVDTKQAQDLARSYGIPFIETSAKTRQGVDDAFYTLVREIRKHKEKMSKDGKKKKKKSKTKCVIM
Description: (§15) 221 Measurements of various protein–protein interactions were performed using the Alpha
(§16) 222 Screen technology developed by Perkin Elmer. Recombinant RAS proteins (H-, N-, K-
(§17) 223 RAS variants; all KRAS variants are based on KRAS isoform 4B (uniprot id P01116-2);
(§18) 224 KRAS (G12D) 1-169, N-terminal 6His-tag, C-terminal avi-tag was from Xtal
(§19) 225 BioStructures, Inc., KRAS (G12C) 1-169, C-terminal avi-tag, biotinylated, mutations:
(§20) 226 C51S, C80L, C118S, NRAS(wt) 1-172, C-terminal avi-tag, biotinylated; HRAS(wt) 1-
(§21) 227 166, C-terminal avi-tag, biotinylated). Biotinylation was performed in vitro with
(§22) 228 recombinant BirA biotin-protein ligase as recommended by the manufacturer (Avidity
(§23) 229 LLC, Aurora, Colorado, USA). Interacting proteins such as SOS1 (564-1049, N-terminal
(§24) 230 GST-tag, TEV cleavage site), cRaf (1-303, N-terminal GST-tag, TEV cleavage site) and
(§25) 231 PI3KA- RBD (160-317, N-term-HIS_GST-tag) were expressed as glutathione S
(§26) 232 transferase (GST) fusions. Accordingly, the Alpha Screen beads were glutathione coated
(§27) 233 Alpha Lisa acceptor beads (Perkin Elmer AL 109 R) and Alpha Screen Streptavidin
(§28) 234 conjugated donor beads (Perkin Elmer 6760002L). Nucleotides were purchased from
(§29) 236 interaction assays were carried out in PBS, containing 0.1% bovine serum albumin,
(§30) 237 0,05% Tween-20 and 10 µM of the corresponding nucleotide. Assays were carried out in
(§31) 238 white ProxiPlate-384 Plus plates (Perkin Elmer #6008280) in a final volume of 20 µL. In
(§32) 239 brief, biotinylated RAS proteins (10 nM final concentration) and GST-SOS1, GST-PI3K
(§33) 240 or GST-CRAF (10 nM final) were mixed with glutathione acceptor beads (5 µg/mL final
(§34) 241 concentration) in buffer, containing the corresponding nucleotides (GDP or GTP for
(§35) 242 assays containing SOS1, only GTP for interaction assays containing PI3K or CRAF) and
(§36) 243 were incubated for 30 min at room temperature. After addition of streptavidin donor
(§37) 244 beads (5 µg/mL final concentration) under green light, the mixture was further incubated
(§38) 245 for 60 min in the dark at room temperature. Single oxygen induced fluorescence was
(§39) 246 measured at an Enspire multimode plate reader (Perkin Elmer) according to the
(§40) 247 manufacturer’s recommendations. […]

GTP-KRASwt::PI3Kα = target: T2, GTP-KRASwt::PI3Kα (Homo sapiens, UniProt P01116); test: Alpha Screen PPI assay; type: biochemical; settings: duplicate, read-out: IC50 GTP-KRASwt ::PI3K
T2 construct: biotin (attachment tag not described)
T2 sequence (P01116 1-188 isoform P01116-2): as above
Description: as §15, §16, §17, §18, §19, §20, §21, §22, §23, §24, §25, §26, §27, §28, §29, §30, §31, §32, §33, §34, §35, §36, §37, §38, §39, §40

How did the antiproliferative effect (NCI-H358 cells [1]) turn out when `Cn1cnc(Cn2ccc3ccc(CNCc4[nH]c5ccccc5c4[C@H]4NC(=O)c5ccc(O)cc54)cc32)c1` [Compound 1] was run?
Its antiproliferative effect is “No antiproliferative effect”.

And the pEC50 (NCI-H358 cells [2])?
Its pEC50 is 5.17.

What about the pIC50 (GTP-KRASwt::SOS1) of the same molecule?
Its pIC50 is 6.31.

And the pIC50 (GTP-KRASwt::PI3Kα)?
The pIC50 was 6.60.
